Common to all, as to format: cell-based, human fecal cultures
Assay [1] relates to Firmicutes, Proteobacteria, and/or Actinobacteria. Description: Ex vivo fecal slurry assay, 16S rRNA sequencing (Example 11). To be noted: 1% w/v fecal slurry from 12 subjects, glycan 0.5% w/v, 37° C., 18 hours, anaerobically; FIGS. 4-6. The source says: (§1) An ex vivo assay was designed to determine if glycans can be used to modulate a complex community of microorganisms and if the glycans produced consistent effects across communities obtained from multiple (twelve) subjects. Fecal samples and slurries were handled in an anaerobic chamber (AS-580, Anaerobe Systems) featuring a palladium catalyst. Glycans ara100, gal100, glu60man40, glu100, glu50gal50, gal33man33ara33, man75gal25, glu33gal33man34, glu33gal33Ara33, man100, man52glu29gal19 and commercially available glycans lactulose (Alfa Aesar) and FOS (Nutraflora FOS; NOW Foods, Bloomingdale Ill.) were included in the study. The fecal sample donations obtained from 12 subjects were stored at −80° C. To prepare working stocks the fecal samples were transferred into the anaerobic chamber and allowed to thaw.
Microbial beta-glucuronidase, found in Proteobacteria, Firmicutes, and Actinobacteria, is known to modify SN-38 glucuronide, which is used to treat cancer (e.g., colorectal cancer) and has the side-effect of diarrhea, by removing a sugar moiety, creating a compound that is toxic to intestinal epithelial cells. Decreasing the levels or activity of microbial beta-glucuronidase expressing microbes may increase the effectiveness of SN-38 glucuronidine treatment and/or decrease/prevent side effects.

For assay [2], the system named is Enterobacteriaceae/Escherichia/Shigella microbes. Description: Ex vivo fecal slurry assay, 16S rRNA sequencing (Example 17). To be noted: 1% w/v fecal slurry from 12 subjects, glycan 0.5% w/v, 37° C., 18 hours, anaerobically; FIG. 14.
Excerpt: as §1
Microbial beta-glucuronidase, found in bacteria that carry the uidA gene, e.g., Escherichia coli, is known to reactivate glucuronidated substrate, e.g., heterocyclic amines, (detoxified by hepatic glucuronidation), by removing the conjugate, generating a toxic compound. Decreasing the levels or activity of microbial beta-glucuronidase expressing microbes may decrease the generation of toxic, e.g., carcinogenic, compounds, which may have a preventative effect on cancer.

Assay [3] deals with Enterococcaceae/Enterococcus and/or Bifidobacteriaceae/Bifidobacterium. The assay can be described thus: Ex vivo fecal slurry assay, 16S rRNA sequencing (Example 15). To be noted: 1% w/v fecal slurry from 12 subjects, glycan 0.5% w/v, 37° C., 18 hours, anaerobically; FIGS. 3 and 10.
Excerpt: as §1
A microbial enzyme, found in Enterococcus faecium, Lactobacillus mucosae, Bifidobacterium sp., and Eggerthella sp., is known to metabolize daidzin into equol, which binds estrogen receptor-beta and may be associated with lower risk/incidence of breast cancer. Increasing the levels or activity of microbes expressing said microbial enzyme may increase the have a preventative effect on cancer, e.g., breast cancer, or treat cancer, e.g., breast cancer.

In assay [4] the test system is Enterococcaceae/Enterococcus and/or Enterobacteriaceae/Escherichia/Shigella microbes. The assay can be described thus: Ex vivo fecal slurry assay, 16S rRNA sequencing (Example 18). To be noted: 1% w/v fecal slurry from 12 subjects, glycan 0.5% w/v, 37° C., 18 hours, anaerobically; FIGS. 3 and 14.
Excerpt: as §1
A microbial enzyme, found in Enterococcus, Clostridium, Corynebacterium, Campylobacter, and Escherichia, is known to convert sweetener to a compound that can be toxic, e.g., converts cyclamate to cyclohexylamine, which can be toxic. Decreasing the levels or activity of microbes expressing said microbial enzyme may decrease the generation of toxic compounds.

The test system of assay [5] is Actinobacteria and/or Coriobacteriaceae/Gordonibacter. Description: Ex vivo fecal slurry assay, 16S rRNA sequencing (Example 13). To be noted: 1% w/v fecal slurry from 12 subjects, glycan 0.5% w/v, 37° C., 18 hours, anaerobically; FIGS. 6 and 8.
Excerpt: as §1
A microbial enzyme found in Actinobacteria and Coriobacteriaceae/Gordonibacter is known to hydrolyze ellagitannin to ellagic acid.

For assay [6], the system named is Enterobacteriales/Enterobacteriaceae microbes. The assay can be described thus: Ex vivo fecal slurry assay, 16S rRNA sequencing (Example 19). To be noted: 1% w/v fecal slurry from 12 subjects, glycan 0.5% w/v, 37° C., 18 hours, anaerobically; FIG. 15.
Excerpt: as §1
Microbial phosphorylase, e.g., thymidine phosphorylase or uridine phosphorylase, found in Enterobacteria, e.g., K. pneumoniae, is known to deglycosylate sorivudine, inactivating it. Sorivudine is used to treat viral infection (e.g. herpes simplex virus 1 and varicella-zoster virus). Decreasing the levels or activity of microbes expressing said microbial phosphorylase may decrease the inactivation of sorivudine and increase the effectiveness of sorivudine treatment against viral infections.

Assay [7] relates to Ruminococcaceae/Ruminococcus microbes. Description: Ex vivo fecal slurry assay, 16S rRNA sequencing (Example 21). To be noted: 1% w/v fecal slurry from 12 subjects, glycan 0.5% w/v, 37° C., 18 hours, anaerobically; FIG. 17.
Excerpt: as §1
A microbial enzyme found in Bacteroidetes (e.g., Bacteroidales) and mucolytic bacteria such as Ruminococcus gnavus, is known to cause metabolic and inflammatory response to emulsifying agents. Decreasing the levels or activity of microbes expressing said microbial enzyme may increase the effectiveness of emulsifying agents, e.g, carboxymethylcellulose or polysorbate-80, e.g., to decrease risk/incidence of metabolic syndrome and/or inflammation.

Take `OC[C@H]1O[C@@H](O[C@@H]2[C@@H](CO)OC(O)(CO)[C@H]2O)[C@H](O)[C@@H](O)[C@H]1O` (mixture of isomers) [lactulose]: the “levels of Firmicutes, Proteobacteria, and/or Actinobacteria” value in assay [1] was “appeared to decrease”. The “levels of Enterobacteriaceae/Escherichia/Shigella microbes” value in assay [2] was “appeared to decrease”. The “levels of Enterococcaceae/Enterococcus and/or Bifidobacteriaceae/Bifidobacterium” value in assay [3] is “appeared to increase”. Also, in assay [4], the “levels of Enterococcaceae/Enterococcus and/or Enterobacteriaceae/Escherichia/Shigella microbes” value is “appeared to decrease”. Further, the “levels of Actinobacteria and/or Coriobacteriaceae/Gordonibacter” value in assay [5] was “appeared to decrease”. Besides, in assay [6], the “levels of Enterobacteriales/Enterobacteriaceae microbes” value is given as “appeared to decrease”. Moreover, the “levels of Ruminococcaceae/Ruminococcus microbes” value in assay [7] is recorded as “appeared to decrease”.
